Laboratory results published in publication PMC11831560, “Development of the Pyrido[2,3-d]pyrimidin-7(8H)-one Scaffold toward Potent and Selective NUAK1 Inhibitors” (ACS Medicinal Chemistry Letters, 2025).
“And” between values parts separate entries of the source, which are not always exact repeats. Identical values can stand only once.

Columns and labels:
IGF-1R = IGF-1R (Homo sapiens, UniProt P08069); assay: Kinase panel radiometric filter binding (33P-ATP); format: biochemical; set-up: % activity remaining: dose or concentration left out as unconfirmed; details: for % activity remaining: IGF-1R
Protocol: (§1) Table S4: AMPKA kinase activity data (ADP-Glo assay)
(§2) Compound pIC50 (Fold selectivity
(§3) Table S5. Kinase selectivity screening for 9 and 24 at 1 µM against a general kinase panel of 140 targets
(§4) in radiometric filter binding assay using 33P-γ−ATP at the MRC PPU International Centre for Kinase
(§5) Profiling, University of Dundee. pIC50 values were determined for compounds with <20% activity
(§6) Kinase activity s.d. pIC50 activity s.d. pIC50

MAP4K5 = MAP4K5 (Homo sapiens, UniProt Q9Y4K4); assay: Kinase panel radiometric filter binding (33P-ATP); format: biochemical; set-up: % activity remaining: dose or concentration left out as unconfirmed; details: for % activity remaining: MAP4K5
Protocol: as §1, §2, §3, §4, §5, §6

MST3 = MST3 (Homo sapiens, UniProt Q9Y6E0); assay: Kinase panel radiometric filter binding (33P-ATP); format: biochemical; set-up: % activity remaining: dose or concentration left out as unconfirmed; details: for % activity remaining: MST3
Protocol: as §1, §2, §3, §4, §5, §6

SIK2 = SIK2 (Homo sapiens, UniProt Q9H0K1); assay: Kinase panel radiometric filter binding (33P-ATP); format: biochemical; set-up: % activity remaining: dose or concentration left out as unconfirmed; details: for % activity remaining: SIK2
Protocol: as §1, §2, §3, §4, §5, §6

VEG-FR = biological target: T1, VEG-FR (Homo sapiens, UniProt P17948); assay: Kinase panel radiometric filter binding (33P-ATP); format: biochemical; set-up: % activity remaining: dose or concentration left out as unconfirmed; details: for % activity remaining: VEG-FR
T1 sequence (P17948 784-1338 limits assumed): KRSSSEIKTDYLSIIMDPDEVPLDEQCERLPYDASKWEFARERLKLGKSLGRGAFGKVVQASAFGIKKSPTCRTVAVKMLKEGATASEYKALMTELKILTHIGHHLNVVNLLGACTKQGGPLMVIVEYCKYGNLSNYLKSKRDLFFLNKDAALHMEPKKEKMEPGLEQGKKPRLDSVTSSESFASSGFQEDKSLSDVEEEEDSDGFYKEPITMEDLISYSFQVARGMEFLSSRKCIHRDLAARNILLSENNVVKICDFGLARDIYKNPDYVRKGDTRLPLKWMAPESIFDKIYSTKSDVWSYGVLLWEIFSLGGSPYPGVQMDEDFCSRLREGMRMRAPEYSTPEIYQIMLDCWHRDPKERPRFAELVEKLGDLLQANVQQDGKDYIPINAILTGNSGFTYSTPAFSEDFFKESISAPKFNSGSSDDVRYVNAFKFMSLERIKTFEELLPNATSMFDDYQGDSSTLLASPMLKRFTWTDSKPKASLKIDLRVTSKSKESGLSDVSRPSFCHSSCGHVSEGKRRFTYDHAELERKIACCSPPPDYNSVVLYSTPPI
Protocol: as §1, §2, §3, §4, §5, §6

[1] = Microsomal stability, human; format: in vitro ADME; details: human liver microsomes; read-out: HLM t1/2
Protocol: All single point assay determinations carried out in duplicate.
ADMET and PK experimental methods
Microsomal stability: analysis was performed by Cyprotex Discovery. […]

CDK4/D1 = tested on: CDK4/D1; set-up: method as in Reddy et al. 28; details: ref Reddy et al. 28; cited from earlier work
CDK6/D1 = tested on: CDK6/D1; set-up: method as in Reddy et al. 28; details: ref Reddy et al. 28; cited from earlier work
[2] = set-up: method as in PMID 24568969; details: mice, I.V. dosing 5 mgkg^–1; cited from earlier work
[3] = radiometric filter binding panel

Sequence of IGF-1R (P08069 31-1367, species assumed): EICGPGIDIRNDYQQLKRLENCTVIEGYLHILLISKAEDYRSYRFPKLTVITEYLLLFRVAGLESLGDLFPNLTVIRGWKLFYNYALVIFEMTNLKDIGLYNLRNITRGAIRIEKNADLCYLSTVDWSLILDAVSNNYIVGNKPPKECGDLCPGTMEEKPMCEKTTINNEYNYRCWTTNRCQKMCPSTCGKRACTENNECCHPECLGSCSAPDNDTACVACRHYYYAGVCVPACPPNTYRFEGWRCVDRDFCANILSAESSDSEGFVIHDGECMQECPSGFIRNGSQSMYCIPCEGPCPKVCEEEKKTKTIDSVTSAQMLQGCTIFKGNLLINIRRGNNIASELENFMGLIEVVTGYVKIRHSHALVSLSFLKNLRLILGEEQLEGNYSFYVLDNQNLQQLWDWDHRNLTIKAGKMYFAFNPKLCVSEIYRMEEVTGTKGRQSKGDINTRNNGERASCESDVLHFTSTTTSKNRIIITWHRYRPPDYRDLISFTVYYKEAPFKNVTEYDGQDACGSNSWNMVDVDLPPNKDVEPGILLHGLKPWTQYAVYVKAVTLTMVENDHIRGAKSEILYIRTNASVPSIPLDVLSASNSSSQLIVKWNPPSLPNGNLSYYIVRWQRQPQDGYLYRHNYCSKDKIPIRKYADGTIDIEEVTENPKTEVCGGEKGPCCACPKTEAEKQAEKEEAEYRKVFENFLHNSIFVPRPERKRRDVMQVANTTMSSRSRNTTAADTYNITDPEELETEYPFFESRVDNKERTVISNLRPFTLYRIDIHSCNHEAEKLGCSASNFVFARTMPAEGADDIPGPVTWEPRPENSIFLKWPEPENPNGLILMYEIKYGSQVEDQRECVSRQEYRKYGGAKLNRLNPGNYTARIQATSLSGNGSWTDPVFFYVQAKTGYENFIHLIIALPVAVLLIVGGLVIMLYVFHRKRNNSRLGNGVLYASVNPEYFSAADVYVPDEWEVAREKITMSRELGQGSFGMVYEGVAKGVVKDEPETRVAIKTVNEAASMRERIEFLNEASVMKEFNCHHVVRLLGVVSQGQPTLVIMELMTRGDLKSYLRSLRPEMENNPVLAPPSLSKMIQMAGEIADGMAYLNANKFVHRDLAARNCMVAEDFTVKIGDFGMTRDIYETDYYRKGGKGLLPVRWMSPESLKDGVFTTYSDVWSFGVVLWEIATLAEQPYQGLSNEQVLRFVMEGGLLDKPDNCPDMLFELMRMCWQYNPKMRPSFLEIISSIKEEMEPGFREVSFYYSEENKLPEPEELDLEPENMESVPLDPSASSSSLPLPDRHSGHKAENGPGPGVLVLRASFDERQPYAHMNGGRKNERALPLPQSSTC
Sequence of SIK2 (Q9H0K1 whole entry, species assumed): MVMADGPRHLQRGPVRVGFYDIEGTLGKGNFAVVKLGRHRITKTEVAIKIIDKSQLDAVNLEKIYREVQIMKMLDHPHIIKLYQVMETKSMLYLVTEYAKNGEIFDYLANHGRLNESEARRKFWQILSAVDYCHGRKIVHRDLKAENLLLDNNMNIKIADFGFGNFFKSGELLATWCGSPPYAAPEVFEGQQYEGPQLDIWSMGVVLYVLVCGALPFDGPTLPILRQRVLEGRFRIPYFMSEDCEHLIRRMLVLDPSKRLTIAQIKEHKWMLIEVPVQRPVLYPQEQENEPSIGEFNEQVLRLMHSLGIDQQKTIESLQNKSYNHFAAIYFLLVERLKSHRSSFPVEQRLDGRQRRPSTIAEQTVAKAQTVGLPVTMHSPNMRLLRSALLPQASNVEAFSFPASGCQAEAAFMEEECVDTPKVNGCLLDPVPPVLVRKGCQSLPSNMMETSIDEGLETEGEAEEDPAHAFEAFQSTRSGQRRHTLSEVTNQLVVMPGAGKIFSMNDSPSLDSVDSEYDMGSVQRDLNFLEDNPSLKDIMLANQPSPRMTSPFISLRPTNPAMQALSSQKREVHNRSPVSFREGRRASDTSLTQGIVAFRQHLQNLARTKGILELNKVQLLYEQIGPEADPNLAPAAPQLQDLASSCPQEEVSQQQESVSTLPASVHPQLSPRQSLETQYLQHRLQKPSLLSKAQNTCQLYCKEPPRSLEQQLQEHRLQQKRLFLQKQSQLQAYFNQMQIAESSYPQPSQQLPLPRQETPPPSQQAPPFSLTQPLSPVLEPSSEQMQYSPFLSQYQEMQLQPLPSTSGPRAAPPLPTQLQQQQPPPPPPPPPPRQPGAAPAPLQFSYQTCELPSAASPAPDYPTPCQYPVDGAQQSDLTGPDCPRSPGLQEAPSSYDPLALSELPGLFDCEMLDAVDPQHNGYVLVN
Sequence of MAP4K5 (Q9Y4K4 whole entry, species assumed): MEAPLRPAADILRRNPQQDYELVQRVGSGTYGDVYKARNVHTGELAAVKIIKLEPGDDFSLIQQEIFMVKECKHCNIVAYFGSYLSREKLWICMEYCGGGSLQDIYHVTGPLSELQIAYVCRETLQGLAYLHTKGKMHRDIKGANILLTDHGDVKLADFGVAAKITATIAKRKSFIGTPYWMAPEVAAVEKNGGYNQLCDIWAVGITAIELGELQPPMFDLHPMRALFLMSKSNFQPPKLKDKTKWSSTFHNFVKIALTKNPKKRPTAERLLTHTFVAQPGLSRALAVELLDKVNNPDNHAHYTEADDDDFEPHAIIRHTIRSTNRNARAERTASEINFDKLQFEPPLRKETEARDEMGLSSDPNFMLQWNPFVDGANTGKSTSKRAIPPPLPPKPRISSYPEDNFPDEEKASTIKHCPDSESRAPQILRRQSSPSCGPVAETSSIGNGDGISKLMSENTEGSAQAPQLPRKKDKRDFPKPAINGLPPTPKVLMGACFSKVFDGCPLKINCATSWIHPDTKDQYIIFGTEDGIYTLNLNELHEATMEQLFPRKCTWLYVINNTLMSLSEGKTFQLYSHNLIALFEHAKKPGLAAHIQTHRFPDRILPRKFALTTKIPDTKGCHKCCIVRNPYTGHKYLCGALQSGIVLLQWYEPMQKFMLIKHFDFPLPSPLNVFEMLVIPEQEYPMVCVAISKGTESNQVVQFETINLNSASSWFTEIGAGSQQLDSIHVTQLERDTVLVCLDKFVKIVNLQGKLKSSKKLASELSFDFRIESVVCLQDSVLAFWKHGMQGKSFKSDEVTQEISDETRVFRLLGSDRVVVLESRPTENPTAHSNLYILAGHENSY
Sequence of MST3 (Q9Y6E0 whole entry, species assumed): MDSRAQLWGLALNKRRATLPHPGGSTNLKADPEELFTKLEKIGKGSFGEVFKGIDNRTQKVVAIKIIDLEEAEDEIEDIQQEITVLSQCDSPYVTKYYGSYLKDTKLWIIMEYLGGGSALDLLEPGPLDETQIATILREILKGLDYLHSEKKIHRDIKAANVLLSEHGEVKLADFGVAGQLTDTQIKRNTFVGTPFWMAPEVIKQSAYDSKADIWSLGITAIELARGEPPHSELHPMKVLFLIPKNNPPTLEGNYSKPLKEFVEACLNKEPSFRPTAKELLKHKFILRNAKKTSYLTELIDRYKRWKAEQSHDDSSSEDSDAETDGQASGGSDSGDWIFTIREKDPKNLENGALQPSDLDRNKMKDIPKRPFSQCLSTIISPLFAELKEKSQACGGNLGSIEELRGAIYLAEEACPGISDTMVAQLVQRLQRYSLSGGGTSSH

half-life at 1 µM [1] [min] | Compound | % activity remaining (IGF-1R) [%] | IC50 (IGF-1R; radiometric filter binding panel, read-out: IGF-1R pIC50 (converted)) [nM] | % activity remaining (MAP4K5) [%] | MAP4K5 pIC50 (MAP4K5; [3]) | IC50 (MAP4K5; radiometric filter binding panel, read-out: MAP4K5 pIC50 (converted)) [nM] | % activity remaining (MST3) [%] | MST3 pIC50 (MST3; [3]) | IC50 (MST3; radiometric filter binding panel, read-out: MST3 pIC50 (converted)) [nM] | % activity remaining (SIK2) [%] | % activity remaining (VEG-FR) [%] | SIK2 pIC50 (SIK2; [3]) | IC50 (VEG-FR; radiometric filter binding panel, read-out: VEG-FR pIC50 (converted)) [nM] | CDK4/D1 pIC50 (CDK4/D1) | CDK6/D1 pIC50 (CDK6/D1) | plasma half-life t1/2 [2] [min]
 | Cc1cc(=O)n(C2CCCC2)c2nc(Nc3ccc(N4CC5CC(C4)N5C)cc3)ncc12 [Compound 9] | 18 | 1050 | 14 | > 7 | 110 | 17 | > 7 | 112 | 44 | 71 |  |  |  |  | 
 | CN1C2CC1CN(c1ccc(Nc3ncc4ccn(CC5CCOCC5)c4n3)cc1)C2 [Compound 24] | 104 |  | 78 |  |  | 84 |  |  | 13 | 17 | 7.1 and 7.09 | 295 |  |  | 
6.9 | CN1CCN(c2ccc(Nc3ncc4cc(C#N)c(=O)n(C5CCCC5)c4n3)cc2)CC1 [Compound 3, Narazaciclib, reference compound] |  |  |  |  |  |  |  |  |  |  |  |  | 8.4 | 8.0 | 90
